According to the supplement of paper PMC11451515:

Test system: SEM cells
Experiment: cell viability relative to DMSO control; higher = less cytotoxic
Conditions: 48 h
Summary of the method: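 NOMO1, SEM and P12-Ichikawa leukemia cells spent at least four passages adapting to each medium before use. They were seeded at 500 cells/well (NOMO1, SEM) or 1000 cells/well (P12-Ichikawa) in 5 μl in 1536-well plates and pin-dosed with library compounds in DMSO at 11 threefold steps from 47 μM down to 0.79 nM. After 48 h at 37°C, CellTiter-Glo One luminescence was read. Viability is reported as a percentage of the DMSO wells on each plate, with cell-free wells as background.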

[1] = HPLM + 10% dialyzed FBS, 0.000781 µM
[2] = HPLM + 10% dialyzed FBS, 0.00234 µM
[3] = HPLM + 10% dialyzed FBS, 0.00702 µM
[4] = HPLM + 10% dialyzed FBS, 0.0211 µM
[5] = HPLM + 10% dialyzed FBS, 0.0632 µM
[6] = HPLM + 10% dialyzed FBS, 0.19 µM
[7] = HPLM + 10% dialyzed FBS, 0.569 µM
[8] = HPLM + 10% dialyzed FBS, 1.71 µM
[9] = HPLM + 10% dialyzed FBS, 5.12 µM
[10] = HPLM + 10% dialyzed FBS, 15.4 µM
[11] = HPLM + 10% dialyzed FBS, 46.1 µM
[12] = RPMI 5 mM glucose + 10% FBS, 0.000781 µM
[13] = RPMI 5 mM glucose + 10% FBS, 0.00234 µM
[14] = RPMI 5 mM glucose + 10% FBS, 0.00702 µM
[15] = RPMI 5 mM glucose + 10% FBS, 0.0211 µM
[16] = RPMI 5 mM glucose + 10% FBS, 0.0632 µM
[17] = RPMI 5 mM glucose + 10% FBS, 0.19 µM
[18] = RPMI 5 mM glucose + 10% FBS, 0.569 µM
[19] = RPMI 5 mM glucose + 10% FBS, 1.71 µM
[20] = RPMI 5 mM glucose + 10% FBS, 5.12 µM
[21] = RPMI 5 mM glucose + 10% FBS, 15.4 µM
[22] = RPMI 5 mM glucose + 10% FBS, 46.1 µM
[23] = RPMI 5 mM glucose + 10% dialyzed FBS, 0.000781 µM
[24] = RPMI 5 mM glucose + 10% dialyzed FBS, 0.00234 µM
[25] = RPMI 5 mM glucose + 10% dialyzed FBS, 0.00702 µM
[26] = RPMI 5 mM glucose + 10% dialyzed FBS, 0.0211 µM
[27] = RPMI 5 mM glucose + 10% dialyzed FBS, 0.0632 µM
[28] = RPMI 5 mM glucose + 10% dialyzed FBS, 0.19 µM
[29] = RPMI 5 mM glucose + 10% dialyzed FBS, 0.569 µM
[30] = RPMI 5 mM glucose + 10% dialyzed FBS, 1.71 µM
[31] = RPMI 5 mM glucose + 10% dialyzed FBS, 5.12 µM
[32] = RPMI 5 mM glucose + 10% dialyzed FBS, 15.4 µM
[33] = RPMI 5 mM glucose + 10% dialyzed FBS, 46.1 µM

Structure (SMILES) | cell viability [1] [%] | cell viability [2] [%] | cell viability [3] [%] | cell viability [4] [%] | cell viability [5] [%] | cell viability [6] [%] | cell viability [7] [%] | cell viability [8] [%] | cell viability [9] [%] | cell viability [10] [%] | cell viability [11] [%] | cell viability [12] [%] | cell viability [13] [%] | cell viability [14] [%] | cell viability [15] [%] | cell viability [16] [%] | cell viability [17] [%] | cell viability [18] [%] | cell viability [19] [%] | cell viability [20] [%] | cell viability [21] [%] | cell viability [22] [%] | cell viability [23] [%] | cell viability [24] [%] | cell viability [25] [%] | cell viability [26] [%] | cell viability [27] [%] | cell viability [28] [%] | cell viability [29] [%] | cell viability [30] [%] | cell viability [31] [%] | cell viability [32] [%] | cell viability [33] [%]
CN(C)c1ccc(O)c2c1C[C@H]1C[C@H]3[C@H](N(C)C)C(O)=C(C(N)=O)C(=O)[C@@]3(O)C(O)=C1C2=O | 97.4 | 98.3 | 93.9 | 108 | 107 | 103 | 91.9 | 104 | 104 | 107 | 118 | 98.3 | 103 | 93.8 | 96.4 | 114 | 108 | 105 | 110 | 103 | 93.5 | 106 | 106 | 119 | 106 | 106 | 105 | 106 | 115 | 122 | 114 | 107 | 104
NC[C@H]1CC[C@H](C(=O)O)CC1 | 58.2 | 128 | 113 | 111 | 119 | 131 | 123 | 124 | 113 | 111 | 104 |  |  |  |  |  |  |  |  |  |  |  | 56.4 | 110 | 106 | 126 | 106 | 104 | 99.9 | 116 | 99.7 | 102 | 92.7
CC1=NN(c2ccc(C)c(C)c2)C(=O)/C1=N/Nc1cccc(-c2cccc(C(=O)O)c2)c1O | 121 | 119 | 125 | 128 | 111 | 117 | 120 | 119 | 109 | 97.6 | 75.3 | 124 | 122 | 128 | 130 | 129 | 122 | 123 | 122 | 121 | 90.4 | 54.7 |  |  |  |  |  |  |  |  |  |  | 
CC1=C(/C=C/C(C)=C/C=C/C(C)=C/C=C/C=C(C)/C=C/C=C(C)/C=C/C2=C(C)CCCC2(C)C)C(C)(C)CCC1 | 96.8 | 101 | 106 | 113 | 102 | 108 | 94.3 | 110 | 115 | 95.4 | 98.1 | 93.1 | 115 | 105 | 98.3 | 106 | 108 | 94.2 | 118 | 119 | 104 | 99.4 | 101 | 100 | 114 | 106 | 109 | 105 | 92.8 | 125 | 103 | 119 | 85.5
Cc1c(CN2CCN(C(=O)[C@H](C)O)CC2)sc2c(N3CCOCC3)nc(-c3cnc(N)nc3)nc12 | 98 | 63.4 | 78.2 | 79 | 70.5 | 67.7 | 55.4 | 38.5 | 35.8 | 36.1 | 31.3 | 96.8 | 70 | 95.4 | 80.9 | 84.6 | 80.1 | 56.3 | 34.3 | 34.3 | 36.8 | 27.3 | 90.4 | 54.8 | 87.4 | 82.4 | 67 | 78.6 | 48.2 | 41.3 | 36.6 | 34.6 | 30.5
CC\1=C(C(\N=C(/N1)C2=CC(=NC=C2)Cl)C3=C(F)C=C(Cl)C=C3)/C(=O)NC4=C(F)C=C5[NH]N=CC5=C4 (configuration not stated) | 82.1 | 84.4 | 100 | 94.9 | 93.2 | 99.6 | 104 | 103 | 81.2 | 54.5 | 10.8 | 102 | 86.8 | 97.3 | 117 | 94.5 | 99.1 | 99.9 | 85.4 | 66.3 | 51.7 | 6.87 | 87.7 | 90.3 | 103 | 108 | 102 | 122 | 96.3 | 101 | 81.3 | 55.2 | 13.5
CC(C)OC(=O)OCOP(=O)(CO[C@H](C)Cn1cnc2c(N)ncnc21)OCOC(=O)OC(C)C.O=C(O)C=CC(=O)O | 85 | 99.6 | 28.3 | 121 | 105 | 114 | 114 | 120 | 98.2 | 105 | 35.1 | 108 | 113 | 11.7 | 119 | 119 | 124 | 115 | 115 | 109 | 94.8 | 76.1 | 77.3 | 107 | 23.8 | 102 | 113 | 104 | 97.9 | 124 | 104 | 102 | 32.2
C[C@H](NC(=O)/C(C#N)=C/c1cccc(Br)n1)c1ccccc1 | 89.8 | 102 | 98.7 | 109 | 118 | 112 | 103 | 40.7 | 8.01 | 6.81 | 6.6 | 91.1 | 98.2 | 102 | 107 | 91.9 | 97.6 | 93.2 | 13 | 7.6 | 6.42 | 6.63 | 74.5 | 116 | 102 | 122 | 104 | 116 | 108 | 38.2 | 8.38 | 7.55 | 7.44
